US9492405B2, “Use of fenoterol and fenoterol analogues in the treatment of glioblastomas and astrocytomas” (The United States of America, as represented by the …, priority 2010, dated 2016)
Several values for one entry are separate records, joined by “and”; a condition that tells them apart may be missing. Equal entries are not always repeated.

Key:
[1] = Brain-to-plasma distribution of [3H]-(R,R)-methoxyfenoterol after single IV dose; assay type: in vivo; conditions: rat, IV
Experimental: An overview of the research study design for evaluating the brain-to-plasma distribution of [^3H]
(specific activity 57 Ci/mmol); vehicle was sterile saline, 0.9% sodium chloride, USP. Dose formulations were prepared on the day of the study. The amount of radioactivity in the dose formulation was determined by liquid scintillation. The study lasted for an hour and radioactivity levels in plasma and brain tissue were evaluated at the conclusion of the study. Approximately 5 mls of whole blood was collected. Blood samples were collected via cardiac puncture, transferred into a tube containing K3EDTA as the anticoagulant and kept on wet ice until processed to plasma. To generate plasma, samples were centrifuged within 15 minutes of collection at 2,500 RPM for 15 minutes at room temperature. Plasma was divided equally into three labeled cryovials and stored on ample dry ice until transferred to a freezer set at ≦−20° C. for storage until analysis. Duplicate aliquots were weighed and then combined with scintillation cocktail. The [^3H] radioactivity was determined on a liquid scintillation counter. Brain samples were snap frozen in liquid nitrogen and stored at ≦−70° C. until analysis. Whole brain tissue was homogenized and the weight of the homogenate was determined. Duplicate aliquots from the homogenate were weighed, solubilized and then combined with scintillation cocktail. The [^3H] radioactivity was determined on a liquid scintillation counter.

1321N1 xenograft = 1321N1 xenograft implanted in the flank of SKID mice; assay type: in vivo; conditions: IP twice a day; day 3-10 30 mg/kg/day, day 10-42 50 mg/kg/day
in vivo = conditions: rat, IV 5 mg/kg
Experimental: Dose calculations (mg/kg) were based on the individual body weight measured on the day of treatment. Study duration for pharmacokinetic studies was 6 hours. […] Urine was collected for 0-6 hours and 6 to 24 hours from 3 rats in each treatment group.
In the two-compartment model, the drug distributes into two compartments, the central compartment and the tissue, or peripheral compartment. The central compartment represents the blood, extracellular fluid, and highly perfused tissues. The drug distributes rapidly and uniformly in the central compartment. A second compartment, known as the tissue or peripheral compartment, contains tissues in which the drug equilibrates more slowly. Drug transfer between the two compartments is assumed to take place by first-order processes.
The following abbreviations are utilized in Table 4 below: alpha—macro rate constant associated with the distribution phase; beta—macro rate constant associated with the elimination phase; A, B—zero time intercept associated with the alpha phase and beta phase, respectively; AUC—area under the curve; T1/2 (K10)—half-life associated with the rate constant K10; K10—elimination rate—rate at which the drug leaves the system from the central compartment; K12—rate at which drug enters tissue compartment from the central compartment; K21—rate at which drug enters central compartment from tissue compartment; V1—volume of distribution of the central compartment; V2—volume of distribution of the tissue compartment; Vss—volume of distribution at steady state; and Cl—clearance.

1321N1 cells = experiment: Cell cycle distribution by flow cytometry in 1321N1 cells; conditions: 1321N1 cells
β2-AR = β2-AR (Homo sapiens (Human), UniProt P07550); conditions: 1321N1; basal below 0.5 nmol/mg protein
Chain of β2-AR (P07550 whole entry): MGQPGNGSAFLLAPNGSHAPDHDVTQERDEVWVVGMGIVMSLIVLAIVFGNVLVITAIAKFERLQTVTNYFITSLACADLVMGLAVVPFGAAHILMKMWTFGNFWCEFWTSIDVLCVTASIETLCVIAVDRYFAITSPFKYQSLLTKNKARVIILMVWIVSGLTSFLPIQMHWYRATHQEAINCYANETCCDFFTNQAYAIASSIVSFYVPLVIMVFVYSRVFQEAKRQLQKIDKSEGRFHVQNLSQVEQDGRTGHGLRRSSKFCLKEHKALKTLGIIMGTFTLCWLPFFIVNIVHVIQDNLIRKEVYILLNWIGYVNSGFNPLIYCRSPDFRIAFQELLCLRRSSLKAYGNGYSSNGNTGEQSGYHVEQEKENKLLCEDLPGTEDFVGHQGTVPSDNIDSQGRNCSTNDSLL

## COc1ccc(C[C@@H](C)NC[C@H](O)c2cc(O)cc(O)c2)cc1.O=C(O)/C=C/C(=O)O [(R,R)-2, (R,R)-(−)-1-p-Methoxyphenyl-2-(β-3′,5′-dihydroxy-phenyl-β-oxy)ethylaminopropane Fumarate]
[1]
  passage through the blood brain barrier: capable of passing through the blood brain barrier
1321N1 xenograft
  growth of 1321N1 xenograft: inhibits astrocytoma growth in vivo
In vivo
  AUC: 96.1011 µg·min/mL
  Cl: 15.40 mL/min
  K12: 0.1309 min⁻¹
  K21: 0.0203 min⁻¹
  T1/2 (K10): 13.23 min
  Vss: 2189.02 mL
In vivo; 5 min
  Plasma concentration, Average: 2120 ng/mL
In vivo; 15 min
  Plasma concentration, Average: 580 ng/mL
In vivo; 30 min
  Plasma concentration, Average: 410 ng/mL
In vivo; 60 min
  Plasma concentration, Average: 260 ng/mL
In vivo; 120 min
  Plasma concentration, Average: 170 ng/mL
In vivo; 240 min
  Plasma concentration, Average: 120 ng/mL
In vivo; 300 min
  Plasma concentration, Average: 70 ng/mL
In vivo; 300 min, individual rats, listed as (R,R)-methoxyfenoterol
  Individual plasma concentration: 0.06 ug/ml and 0.07 ug/ml (3×) and 0.09 ug/ml
In vivo; 360 min
  Plasma concentration, Average: 60 ng/mL
In vivo; central compartment
  V1: 294.01 mL
In vivo; elimination rate
  K10: 0.0524 min⁻¹
In vivo; tissue compartment
  V2: 1895.00 mL
In vivo; two-compartment open model
  Alpha: 0.1982 min⁻¹
  Beta: 0.0054 min⁻¹
In vivo; two-compartment open model, zero time intercept alpha phase
  A: 4.6437 µg/mL
In vivo; zero time intercept beta phase
  B: 0.3900 µg/mL

## C=C[C@@]1(C)CC(=O)[C@]2(O)[C@@]3(C)[C@@H](O)CCC(C)(C)[C@@H]3[C@H](O)[C@H](OC(C)=O)[C@@]2(C)O1 [forskolin, reference compound]
1321N1 cells
  cell cycle arrest: induced cell cycle arrest in G1 phase
β2-AR
  intracellular concentration of cAMP after treatment: ~4 nmol/mg protein
